This note sets out measurements from ChEMBL document CHEMBL1201862, “PubChem BioAssay data set” (2004).

SMILES strings stand for the structures. Activity calls are given as the source filed them. Bounds are passed on as bounds.

The target in one assay is Albumin (Bos taurus, UniProt P02769). Put plainly: Counterscreen for inhibitors of T-cell receptor (TCR)-CD3 interaction: Fluorescence-based biochemical high throughput dose response assay to identify inhibitors of T-cell receptor (TCR)-CD3 interaction using a TAMRA-labeled BSA probe. The format is functional.
The target in a further assay is T1, Caspase-3 (Homo sapiens, UniProt P42574).
T1 sequence (P42574 whole entry): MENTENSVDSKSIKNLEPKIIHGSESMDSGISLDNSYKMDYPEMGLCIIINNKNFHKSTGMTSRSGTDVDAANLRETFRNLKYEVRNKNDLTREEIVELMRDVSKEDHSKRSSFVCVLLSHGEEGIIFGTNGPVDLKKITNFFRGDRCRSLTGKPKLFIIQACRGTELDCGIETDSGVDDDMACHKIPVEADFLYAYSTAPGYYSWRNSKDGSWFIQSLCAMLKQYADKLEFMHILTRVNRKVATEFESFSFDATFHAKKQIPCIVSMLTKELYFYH
Put plainly: SAR Analysis of small molecule inhibitors of Sentrin-specific proteases (SENPs) using a Caspase-3 Selectivity assay. [Related pubchem assays (depositor defined):AID2540, AID2599, AID434973, AID489001]. The format is functional.

Assay [1] has as its target T2, Sentrin-specific protease 6 (Homo sapiens, UniProt Q9GZR1).
T2 sequence (Q9GZR1 whole entry): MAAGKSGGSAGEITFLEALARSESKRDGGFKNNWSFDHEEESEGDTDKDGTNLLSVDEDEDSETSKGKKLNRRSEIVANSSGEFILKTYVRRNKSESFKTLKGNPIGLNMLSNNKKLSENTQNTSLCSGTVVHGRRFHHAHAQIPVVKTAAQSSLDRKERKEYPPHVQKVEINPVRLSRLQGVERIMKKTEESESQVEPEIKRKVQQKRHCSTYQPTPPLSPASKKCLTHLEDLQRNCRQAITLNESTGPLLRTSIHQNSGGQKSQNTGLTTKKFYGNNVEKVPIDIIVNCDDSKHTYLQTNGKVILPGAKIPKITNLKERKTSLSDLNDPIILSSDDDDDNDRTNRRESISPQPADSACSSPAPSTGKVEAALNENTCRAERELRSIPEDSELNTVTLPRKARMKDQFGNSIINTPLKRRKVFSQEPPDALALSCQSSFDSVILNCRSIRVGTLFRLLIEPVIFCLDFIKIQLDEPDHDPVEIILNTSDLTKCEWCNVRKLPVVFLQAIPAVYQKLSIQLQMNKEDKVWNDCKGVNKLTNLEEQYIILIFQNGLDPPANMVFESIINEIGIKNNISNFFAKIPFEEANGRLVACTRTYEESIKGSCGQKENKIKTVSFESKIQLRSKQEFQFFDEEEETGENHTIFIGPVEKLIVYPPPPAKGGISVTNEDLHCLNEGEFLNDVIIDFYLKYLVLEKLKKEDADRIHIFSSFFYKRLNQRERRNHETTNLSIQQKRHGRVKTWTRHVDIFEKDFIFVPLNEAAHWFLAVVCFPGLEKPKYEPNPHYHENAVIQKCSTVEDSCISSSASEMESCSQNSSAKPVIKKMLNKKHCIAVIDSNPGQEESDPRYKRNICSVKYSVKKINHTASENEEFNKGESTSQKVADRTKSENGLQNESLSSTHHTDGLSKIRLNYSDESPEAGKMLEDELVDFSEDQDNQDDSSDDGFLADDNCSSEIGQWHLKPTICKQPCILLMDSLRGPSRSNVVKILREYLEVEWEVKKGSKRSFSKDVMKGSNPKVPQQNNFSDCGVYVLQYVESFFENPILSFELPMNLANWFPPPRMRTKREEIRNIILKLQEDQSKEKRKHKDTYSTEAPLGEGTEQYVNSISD
As to the kind of experiment: SAR Analysis of small molecule inhibitors of Sentrin-specific protease 6 (SENP6) using a Luminescent assay. [Related pubchem assays (depositor defined):AID2582, AID2599]. The format is functional.

Assay [2] has as its target T3, Sentrin-specific protease 7 (Homo sapiens, UniProt Q9BQF6).
T3 sequence (Q9BQF6 whole entry): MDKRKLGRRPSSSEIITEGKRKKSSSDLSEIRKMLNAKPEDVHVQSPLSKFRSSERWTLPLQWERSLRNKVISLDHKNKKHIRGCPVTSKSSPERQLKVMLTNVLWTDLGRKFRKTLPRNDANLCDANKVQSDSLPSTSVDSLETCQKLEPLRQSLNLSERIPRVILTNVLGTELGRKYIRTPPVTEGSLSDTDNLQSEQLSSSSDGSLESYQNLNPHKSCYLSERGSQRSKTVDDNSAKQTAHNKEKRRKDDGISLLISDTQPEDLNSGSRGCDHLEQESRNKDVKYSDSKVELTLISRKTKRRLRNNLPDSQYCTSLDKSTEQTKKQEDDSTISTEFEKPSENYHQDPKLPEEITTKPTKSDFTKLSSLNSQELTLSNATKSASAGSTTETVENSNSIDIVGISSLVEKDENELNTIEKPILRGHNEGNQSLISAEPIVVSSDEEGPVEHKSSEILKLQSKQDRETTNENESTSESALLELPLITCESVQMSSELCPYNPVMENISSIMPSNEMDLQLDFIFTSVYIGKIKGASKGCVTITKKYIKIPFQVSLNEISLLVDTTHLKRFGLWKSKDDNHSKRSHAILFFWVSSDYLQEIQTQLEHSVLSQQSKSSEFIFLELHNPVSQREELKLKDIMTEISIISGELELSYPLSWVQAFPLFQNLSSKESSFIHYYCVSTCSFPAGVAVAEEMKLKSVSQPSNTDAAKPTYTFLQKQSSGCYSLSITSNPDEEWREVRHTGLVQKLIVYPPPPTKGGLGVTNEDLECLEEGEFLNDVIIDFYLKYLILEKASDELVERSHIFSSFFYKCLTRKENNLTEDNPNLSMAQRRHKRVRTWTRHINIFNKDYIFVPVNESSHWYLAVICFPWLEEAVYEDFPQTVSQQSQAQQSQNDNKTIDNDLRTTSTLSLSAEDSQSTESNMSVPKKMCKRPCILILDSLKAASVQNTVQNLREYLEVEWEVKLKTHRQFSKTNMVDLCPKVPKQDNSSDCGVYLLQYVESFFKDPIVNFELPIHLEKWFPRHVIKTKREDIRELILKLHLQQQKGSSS
As to the kind of experiment: inhibition of human SENP7 cleavage activity – biochemical, luminescence, SAR follow-up (AID 504497). The format is functional.

Assay [3] addresses T4, Sentrin-specific protease 8 (Homo sapiens, UniProt Q96LD8).
T4 sequence (Q96LD8 whole entry): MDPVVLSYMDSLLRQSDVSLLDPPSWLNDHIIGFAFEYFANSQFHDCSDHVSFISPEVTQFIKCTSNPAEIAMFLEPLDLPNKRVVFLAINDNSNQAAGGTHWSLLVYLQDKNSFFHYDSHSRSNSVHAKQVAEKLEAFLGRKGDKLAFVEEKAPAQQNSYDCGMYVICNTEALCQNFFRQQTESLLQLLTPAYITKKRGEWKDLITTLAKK
Put plainly: inhibition of human SENP8 cleavage activity – biochemical, luminescence, SAR follow-up (AID 504501). The format is functional.

Another assay deals with P388/ADR. As to the kind of experiment: cells. In kind it is functional. To be noted: Mus musculus.
For the next assay, the system named is P388. As to the kind of experiment: cells. In kind it is functional. The note with it: Mus musculus.
For the next assay, the system named is SN12K1. As to the kind of experiment: cells. In kind it is functional. The note with it: Homo sapiens, SN12K1.
Assay [4] in a line: activation of miR-122 Renilla sensor silencing – cell-based, Huh7 psiCHECK-miR122, Renilla luciferase, cherry-picked, dose response (AID 651956).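 Further: huh7 hepatoma cells stably carrying a psiCHECK-2 miR-122 sensor plasmid; renilla luciferase signal reporting endogenous miR-122 activity after 48 h compound exposure.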 In kind it is functional.
Assay [5] can be described thus: intracellular Trypanosoma cruzi inhibitors in host cells – cell-based, plate reader, cherry-pick samples, set 3, dose response (AID 651818).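 Further: compounds incubated with infected cells for about four days.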 In kind it is functional.
Assay [6] deals with T5, Fatty acid synthase (Homo sapiens, UniProt P49327). As to the kind of experiment: inhibition of human FAS-TE enzyme activity – biochemical, endpoint fluorescence intensity, uHTS hits, dose response (AID 624327).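 Further: fluorescence from hydrolysis of an O-methyl fluorescein acyl ester substrate by the enzyme.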 In kind it is functional.
Assay [7] deals with T5, Fatty acid synthase. Put plainly: inhibition of human FAS-TE enzyme activity – biochemical, kinetic fluorescence intensity, dose response (AID 624326).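 Further: rate of fluorescence rise from hydrolysis of a fluorogenic O-methyl fluorescein ester substrate.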 In kind it is functional.
A short description of assay [8]: fluconazole-exposed Candida albicans growth modulators – fluorescence, retest, confirmation (AID 2467). In kind it is functional, cell-based.
Assay [9] is described as follows: NIH-3T3 fibroblast cytotoxicity, dose response, cytotoxicity control, cell-based, fluorescence, Alamar Blue, secondary assay (AID 2327).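 Further: NIH-3T3 mouse fibroblasts cultured with fluconazole at 8 µg/mL.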 The format is functional.
A further assay relates to Streptococcus. As to the kind of experiment: GAS UMAA2166 growth inhibition – luminescence, BacTiterGlo, counter-screen for streptokinase expression inhibitor project, dose response (AID 1915).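 Further: potency for reduction of bacterial viability or growth.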 The format is functional, organism-based.
Assay [10] concerns Streptococcus sp. 'group A'. As to the kind of experiment: Streptococcus pyogenes SK(-)GAS viability under kanamycin – luminescence, BacTiterGlo, confirmation, counter-screen for streptokinase expression inhibitor project, dose response (AID 1900). The format is functional, organism-based.

Albumin, sequence (P02769 whole entry): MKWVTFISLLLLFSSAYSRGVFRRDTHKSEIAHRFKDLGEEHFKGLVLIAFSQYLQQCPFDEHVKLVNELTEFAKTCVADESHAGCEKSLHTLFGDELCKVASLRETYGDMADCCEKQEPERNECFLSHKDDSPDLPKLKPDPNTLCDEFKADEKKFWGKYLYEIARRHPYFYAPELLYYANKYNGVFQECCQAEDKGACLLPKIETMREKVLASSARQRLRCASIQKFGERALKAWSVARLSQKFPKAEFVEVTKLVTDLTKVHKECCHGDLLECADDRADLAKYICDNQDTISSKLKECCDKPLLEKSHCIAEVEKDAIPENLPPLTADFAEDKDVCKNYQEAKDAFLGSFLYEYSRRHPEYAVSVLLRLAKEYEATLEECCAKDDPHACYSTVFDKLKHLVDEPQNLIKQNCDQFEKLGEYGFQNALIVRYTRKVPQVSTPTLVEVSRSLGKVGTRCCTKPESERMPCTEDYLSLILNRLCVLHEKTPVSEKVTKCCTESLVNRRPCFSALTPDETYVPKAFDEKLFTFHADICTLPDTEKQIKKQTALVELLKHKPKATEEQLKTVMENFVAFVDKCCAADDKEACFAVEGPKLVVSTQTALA
T5 sequence (P49327 whole entry): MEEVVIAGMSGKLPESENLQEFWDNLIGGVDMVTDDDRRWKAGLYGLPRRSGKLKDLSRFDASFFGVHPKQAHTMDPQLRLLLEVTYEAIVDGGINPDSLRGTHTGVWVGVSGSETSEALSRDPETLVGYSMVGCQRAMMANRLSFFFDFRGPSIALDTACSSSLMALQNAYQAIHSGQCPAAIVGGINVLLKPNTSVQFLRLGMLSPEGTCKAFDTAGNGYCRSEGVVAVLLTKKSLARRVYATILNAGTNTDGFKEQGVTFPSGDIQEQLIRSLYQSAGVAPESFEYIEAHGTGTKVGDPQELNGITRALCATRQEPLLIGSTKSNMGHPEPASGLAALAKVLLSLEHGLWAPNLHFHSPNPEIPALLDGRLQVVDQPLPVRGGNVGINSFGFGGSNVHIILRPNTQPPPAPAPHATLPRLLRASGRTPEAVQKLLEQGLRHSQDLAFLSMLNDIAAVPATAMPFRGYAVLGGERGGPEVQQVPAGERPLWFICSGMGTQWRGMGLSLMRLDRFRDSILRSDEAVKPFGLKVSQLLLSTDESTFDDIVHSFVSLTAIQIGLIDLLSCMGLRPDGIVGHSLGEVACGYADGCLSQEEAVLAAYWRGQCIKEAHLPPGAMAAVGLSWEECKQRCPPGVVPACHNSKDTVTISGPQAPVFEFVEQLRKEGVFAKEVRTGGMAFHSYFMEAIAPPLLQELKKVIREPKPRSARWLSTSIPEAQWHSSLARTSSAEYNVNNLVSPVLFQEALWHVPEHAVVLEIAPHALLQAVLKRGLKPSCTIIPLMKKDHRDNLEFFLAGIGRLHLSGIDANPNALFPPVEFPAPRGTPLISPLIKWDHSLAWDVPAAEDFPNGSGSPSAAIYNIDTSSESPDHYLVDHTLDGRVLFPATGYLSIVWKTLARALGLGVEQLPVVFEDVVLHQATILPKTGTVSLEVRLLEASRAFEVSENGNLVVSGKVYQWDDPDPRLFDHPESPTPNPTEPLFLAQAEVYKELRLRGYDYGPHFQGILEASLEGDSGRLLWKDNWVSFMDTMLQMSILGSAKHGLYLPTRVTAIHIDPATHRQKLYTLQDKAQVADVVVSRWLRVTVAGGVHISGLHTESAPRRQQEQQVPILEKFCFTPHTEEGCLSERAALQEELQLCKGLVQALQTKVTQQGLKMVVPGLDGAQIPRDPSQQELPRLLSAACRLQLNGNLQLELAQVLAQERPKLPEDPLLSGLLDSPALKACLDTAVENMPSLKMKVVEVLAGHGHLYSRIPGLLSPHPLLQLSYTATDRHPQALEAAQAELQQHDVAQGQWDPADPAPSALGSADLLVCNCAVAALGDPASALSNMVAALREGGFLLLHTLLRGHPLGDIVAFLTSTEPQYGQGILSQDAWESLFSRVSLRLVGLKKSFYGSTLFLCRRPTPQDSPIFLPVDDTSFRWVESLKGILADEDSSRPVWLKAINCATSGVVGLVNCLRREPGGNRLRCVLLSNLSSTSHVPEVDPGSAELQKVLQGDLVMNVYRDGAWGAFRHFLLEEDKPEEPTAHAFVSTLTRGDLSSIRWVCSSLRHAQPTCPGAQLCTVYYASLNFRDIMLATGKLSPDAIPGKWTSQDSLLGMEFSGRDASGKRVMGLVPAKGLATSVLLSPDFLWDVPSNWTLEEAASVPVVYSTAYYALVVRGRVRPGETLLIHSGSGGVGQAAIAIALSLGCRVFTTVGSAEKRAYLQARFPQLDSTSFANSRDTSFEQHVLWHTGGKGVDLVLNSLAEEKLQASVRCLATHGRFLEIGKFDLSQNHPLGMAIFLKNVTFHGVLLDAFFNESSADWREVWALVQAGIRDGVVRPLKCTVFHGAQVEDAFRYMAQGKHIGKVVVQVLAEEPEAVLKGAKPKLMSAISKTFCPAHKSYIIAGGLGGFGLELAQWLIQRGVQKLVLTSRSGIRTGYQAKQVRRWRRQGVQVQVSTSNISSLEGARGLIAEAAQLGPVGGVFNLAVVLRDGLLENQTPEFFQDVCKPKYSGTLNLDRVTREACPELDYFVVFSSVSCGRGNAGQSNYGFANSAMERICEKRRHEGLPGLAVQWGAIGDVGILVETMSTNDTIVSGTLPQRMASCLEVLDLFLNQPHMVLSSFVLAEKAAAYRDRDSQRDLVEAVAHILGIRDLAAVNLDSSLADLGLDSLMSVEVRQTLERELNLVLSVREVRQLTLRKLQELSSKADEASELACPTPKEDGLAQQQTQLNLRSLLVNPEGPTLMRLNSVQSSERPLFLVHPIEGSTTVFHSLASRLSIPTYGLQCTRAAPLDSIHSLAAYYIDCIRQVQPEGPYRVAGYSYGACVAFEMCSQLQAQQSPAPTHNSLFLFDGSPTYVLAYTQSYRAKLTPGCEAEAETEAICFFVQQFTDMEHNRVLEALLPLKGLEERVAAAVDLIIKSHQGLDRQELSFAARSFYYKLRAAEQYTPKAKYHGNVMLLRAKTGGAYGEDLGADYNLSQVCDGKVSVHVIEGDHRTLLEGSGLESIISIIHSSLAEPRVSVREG

Consider `CC(=O)c1cccc(NC(=O)C(OC(=O)c2cccc(S(=O)(=O)N(C)c3ccccc3)c2)c2ccccc2)c1` (stereo not drawn), for which, at Albumin, the IC50 was > 94.1 µM (inactive).

Regarding `COc1ccc(C(=O)NN=c2c(=O)c3ccccc3c2=O)cc1`, the IC50 is > 99 µM (inactive) on Caspase-3, 4.15 µM (active) in assay [1], > 99 µM (inactive) in assay [2] and > 99 µM (inactive) in assay [3].

Regarding `Fc1ccc(N/N=C/c2c[nH]c3ccccc23)cc1`, the IC50 is > 99 µM (inactive) on Caspase-3, 42.2 µM (active) in assay [1], 27.2 µM (active) in assay [2] and 45.2 µM (active) in [3].

In the case of `O=C(O)CCN1C(=O)/C(=C/c2cccc(OCC(=O)Nc3ccc(Cl)cc3)c2)SC1=S`, the IC50 on Caspase-3 is > 99 µM (inactive); in assay [1], 62.1 µM (active); in assay [2] it was 78.2 µM (active); in [3], 92.8 µM (active).

Take `O=C(Nc1ccc(F)cc1)c1ccc2c(c1)OCO2`: the IC50 was 1.92 µM (active) on Caspase-3, 7.53 µM (active) in assay [1], 2.75 µM (active) in assay [2] and 8.03 µM (active) in assay [3].

For the compound `O=C1ON(Cc2ccccc2)C(c2ccccc2)N1c1ccccc1` (stereo not drawn), the GI50 is 54 µM (inactive) in the assay on P388/ADR, 7.45 µM (inactive) in the assay on P388 and > 100 µM (inactive) in the assay with SN12K1.

Turning to `O=NN1C(c2ccccc2)CCCC1c1ccccc1` (stereo not drawn), the GI50 in the assay on P388/ADR is 31.8 µM (inactive); in the assay on P388, 27.5 µM (inactive); with SN12K1, > 63.5 µM (inactive).

Turning to `COC(=O)c1ccc(/N=N/N(C)COc2ccc([N+](=O)[O-])cc2)cc1`, the GI50 was 23.6 µM (inactive) in the assay on P388/ADR, 37.7 µM (inactive) with P388 and 40.2 µM (inactive) with SN12K1.

As to `COC1=C(C)C(=O)C2=C(C1=O)C1C3CC4=C(C(=O)C(OC)=C(C)C4=O)C(CNC(=O)C(C)O)N3C(C#N)C(C2)N1C` (stereo not drawn), the results for the GI50 with P388/ADR, in the assay on P388 and in the assay on SN12K1 were 0.203 µM (active), < 0.01 µM (active) and < 0.01 µM (active), respectively.

As for `O=S(=O)(O)c1ccc(/N=N\c2ccc(/N=N/c3ccc(/C=C/c4ccc(/N=[N+](\[O-])c5ccc(/C=C/c6ccc(/N=N/c7ccc(/N=N/c8ccc(S(=O)(=O)O)cc8)c8ccccc78)cc6S(=O)(=O)O)c(S(=O)(=O)O)c5)cc4S(=O)(=O)O)c(S(=O)(=O)O)c3)c3ccccc23)cc1`, the GI50 with P388 and in the assay on SN12K1 was > 100 µM (inactive) in each case.

Take `C/C=C/c1ccc([C@@H]2[C@@H](CO)N(C(=O)Cc3cccnc3)[C@H]2CNC(C)=O)cc1`: the AC50 in assay [4] was 28.6 µM (active).

For the compound `C[C@@H]1CN([C@@H](C)CO)C(=O)c2cccc(NC(=O)Nc3ccc(C(F)(F)F)cc3)c2O[C@H]1CN(C)Cc1ccc(Cl)c(Cl)c1`, the AC50 in [5] is 0.919 µM (active).

Take `C[C@H]1CN([C@@H](C)CO)C(=O)c2cc(C#CC3CCCC3)cnc2O[C@H]1CN(C)C(=O)Cc1ccccn1`: the AC50 in assay [4] is 21.3 µM (active).

Turning to `C[C@@H]1CN([C@H](C)CO)C(=O)Cc2cc(NC(=O)Cc3cn(C)c4ccccc34)ccc2O[C@@H]1CN(C)Cc1ccc(Cl)c(Cl)c1`, the AC50 in assay [5] is 5.18 µM (active).

For the compound `C[C@H](CO)N1C[C@H](C)[C@H](CN(C)CC2CCCCC2)Oc2ccc(NC(=O)Nc3ccc(C(F)(F)F)cc3)cc2CC1=O`, the AC50 in assay [5] was 2.72 µM (active).

In the case of `O=C(N/N=C/c1cc([N+](=O)[O-])ccc1O)/C(=C\c1cccs1)NC(=O)c1ccccc1`, the figures for the IC50 on Fatty acid synthase [6], at Albumin and at Fatty acid synthase [7] were 15.2 µM (active), > 94.1 µM (inactive) and 13.8 µM (active), respectively. Besides, the concentration for a half-maximal effect (EC50) is 3.32 µM (active) in assay [8], > 160 µM (inactive) in assay [9], 2.16 µM (active) in the assay on Streptococcus and 0.76 µM (active) in [10].
